From paper PMC3486420, “In Vitro and In Vivo Characterizations of Chiglitazar, a Newly Identified PPAR Pan-Agonist” (PPAR Research, 2012)

Columns and labels:
[1] = tested on: KKAy mice; assay: Gene expression by RT-PCR in tissues of treated KKAy mice; format: in vivo, mouse; conditions: 12 days oral
Protocol: (§1) Total RNA was extracted from cells or tissues with an RNeasy minikit (Qiagen, Valencia, CA, USA). The first-strand cDNA was synthesized using the oligo(dT) primers, followed by using SuperScript II reverse transcriptase (Invitrogen) according to the manufacturer's instructions. The PCR amplifications were performed in 10 μL of reaction mixture volume containing 0.8 μL of cDNA, 10 mM Tris-HCl (pH 8.3), 50 mM KCl, 1.5 mM MgCl2, 0.1% Triton X-100, 0.2 mM deoxynucleotide triphosphates, 0.4 μM primers, and 0.25 U of Taq polymerase (TaKaRa Biotechnology Co., Ltd, China). Taq DNA polymerase was added to each tube after a treatment of 2 min at 94°C. This was followed by 22–30 cycles of denaturation (23 s at 94°C), annealing (20 s at 55°C), extension (30 s at 72°C), and a final extension step of 2 min. PCR products were analyzed by electrophoresis on a 1.5% agarose gel stained with ethidium bromide.
Male db/db mice (BKS.Cg-m +/+ LEPR^db) in 6-7 weeks were purchased from The Jackson Laboratory (Bar Harbor, ME, USA). Male KKAy and C57BL/6J mice in 8–10 weeks were obtained from the Institute of Animal Science, Chinese Academy of Medical Sciences and Peking Union Medical College (Beijing, China). Animals were randomly sorted into different treatment groups (8–10 per group). […]. Plasma glucose levels were examined at various time points by Accu-Chek Advantage II Glucose Strips (Roche Diagnostics, Basel, Switzerland) and measured by Accu-Chek Advantage (Roche Diagnostics). Animals were sacrificed 24 h after the last dosing and abdominal fat pad, liver, and skeletal muscle from KKAy mice and abdominal fat pad from db/db mice were taken for gene expression analysis.
Figure 3 In vivo regulation of gene expression by chiglitazar. […]. Equal amount of total RNA from each mouse in the same group was mixed and subjected to RT-PCR analysis for the indicated genes. […]. Total RNA was isolated from individual animal tissues and subjected to the RT-PCR analysis independently for the indicated genes.

[2] = tested on: 3T3-L1 cells; assay: Gene expression by RT-PCR in 3T3-L1 cells; format: cell-based, mouse; conditions: 48 h, 10 μM rosiglitazone, 10 μM chiglitazar, vs vehicle
Description: cDNAs for human retinoid X receptor (hRXR), PPARα, PPARγ, and PPARδ were obtained by reverse transcriptase polymerase chain reaction (RT-PCR) from human liver or adipose tissues. Amplified cDNAs were cloned into pcDNA3.1 expression vector (Invitrogen, Carlsbad, CA, USA). The integrity and fidelity of all constructs made were verified by DNA sequencing. Luciferase reporter plasmids, ACOX promoter for PPARγ and pHD(X3)-luc for PPARα, were kind gifts of Drs. TM McIntyre (University of Utah, USA) and RA Rachubinski (University of Alberta, Canada), respectively. PPRE-luc for PPARδ was constructed based on the previous report by insertion of the annealed oligonucleotides having four copies of the CYP4A6 PPRE (4 × […]) into the upstream of the luciferase coding sequence in pGL3-promoter vector (Promega, Madison, WI, USA). pCMVβGal was purchased from Clontech (Palo Alto, CA, USA). The mouse 3T3-L1 preadipocyte cell line, skeletal muscle C2C12 cell line, and macrophage RAW267.4 cell line and the human osteosarcoma U2OS cell line were obtained from the American Type Culture Collection (ATCC, Rockville, MD, USA). […]
Total RNA was extracted from cells or tissues with an RNeasy minikit (Qiagen, Valencia, CA, USA). […] PCR products were analyzed by electrophoresis on a 1.5% agarose gel stained with ethidium bromide. […]

[3] = tested on: Wistar rats; assay: Influence in heart weight of Wistar rats, 6-month oral dosing; format: in vivo, rat; conditions: for Increase in heart weight: 135 mg kg^−1 (~900 mg/m^2) oral daily, 6 months
Protocol: Male and female Wistar rats of 6-week old were randomly divided into 4 groups, 5 for each male and female per group. Animals in different groups were orally treated daily with chiglitazar suspended in water at the doses of 15, 45, and 135 mg kg^−1, or vehicle (water), for 6 months. 24 h after the last treatment, animals were sacrificed and the weight of heart from individual animals was weighed.
Figure 5 Influence on heart weight and tissue distribution of chiglitazar in rats. (a) Wistar rats were orally administered daily with chiglitazar at the dose of 15, 45 and 135 mg kg^−1 for 6 months. 24 h after the last dosing, animals were sacrificed and the heart weight was evaluated. *P < 0.05 compared with control; n = 5 per group. (b) Male Wistar rats were orally administered with a single dose of ^3H-chiglitazar at 12.5 mg kg^−1 (radiation dose 31.7 MBq kg^−1). Rats were sacrificed at 1.5, 4, 8, and 24 h after treatment (n = 5 per time point), and various tissues/organs as indicated were taken for radioactivity measurement. The accumulated area under curves through 0 to 24 h (AUC0–24) was calculated based on individual tissue distribution measured at each time point. (c) The time course distribution of chiglitazar in different tissues at individual time point (1.5, 4, 8, 24 h). Data are expressed as mean ± SE.

[4] = tested on: db/db mice; assay: Gene expression by RT-PCR in tissues of treated db/db mice; format: in vivo, mouse; conditions: 14 days oral, chiglitazar 20 mg kg^−1 compared with rosiglitazone 5 mg kg^−1
Protocol: as §1
Male db/db mice (BKS.Cg-m +/+ LEPR^db) in 6-7 weeks were purchased from The Jackson Laboratory (Bar Harbor, ME, USA). Male KKAy and C57BL/6J mice in 8–10 weeks were obtained from the Institute of Animal Science, Chinese Academy of Medical Sciences and Peking Union Medical College (Beijing, China). […] Plasma glucose levels were examined at various time points by Accu-Chek Advantage II Glucose Strips (Roche Diagnostics, Basel, Switzerland) and measured by Accu-Chek Advantage (Roche Diagnostics). […]

[5] = chiglitazar 20 mg kg^−1, rosiglitazone 5 mg kg^−1

O=C(c1ccc(F)cc1)c1ccccc1NC(Cc1ccc(OCCn2c3ccccc3c3ccccc32)cc1)C(=O)O (centres unmarked) [Chi, 2-[(2-(4-fluorobenzoyl)phenyl)amino]-3-[4-(2-carbazolylethoxy)-phenyl]-propionic acid]
Expression of ACADL, HSL, GLUT4 and PPARγ in liver and skeletal muscle [1, 5]: not affected | Expression of genes involved in PPARγ-mediated insulin sensitization in adipose tissue [1, 5]: almost identically up-regulated | Expression of PPARα and VLCS in adipose tissue ([1]; chiglitazar 20 mg kg^−1 compared with rosiglitazone 5 mg kg^−1): greater degree of upregulation | Expression of leptin and SREBP1 in liver and skeletal muscle ([1]; chiglitazar 20 mg kg^−1 vs rosiglitazone 5 mg kg^−1): more upregulated | Expression of PPARγ downstream genes SREBP1 and adiponectin [2]: upregulated | No-effect dose on heart weight (45 mg kg^−1) relative to optimal efficacy dose (10 mg kg^−1) ([3]; Wistar rats): about 4.5 times | Microscopical examination of weight-increased hearts ([3]; Wistar rats, 135 mg kg^−1, 6 months (data not shown)): minimal to mild myocardial hypertrophy | Heart weight ([3]; Wistar rats, oral daily 6 months, doses as high as 45 mg kg^−1 (~300 mg/m^2)): did not increase | Increase in heart weight ([3]; female Wistar rats): about 20% | Increase in heart weight ([3]; male Wistar rats): ~12% | Expression of UCP1 in adipose tissue [4]: greater degree of upregulation
